Source: PubChem BioAssay (NCI)
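Tested at 5 concentrations; 48 h exposure; 96-well plates; endpoints linearly interpolated, else capped at highest concentration. GI50: concentration for 50% inhibition of growth. At the TGI there is no net growth.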

How the values were obtained:
Experiment in all cases: NCI tumour cell line growth inhibition, 48 h
[1] = test system: XF 498 CNS
[2] = test system: LXFL 529 NSCLC
[3] = test system: SF-295 CNS
[4] = test system: 786-0 renal
[5] = test system: IGROV1 ovarian
[6] = test system: SW-620 colon
[7] = test system: COLO 205 colon
[8] = test system: CAKI-1 renal
[9] = test system: TK-10 renal
[10] = test system: SF-268 CNS
[11] = test system: DMS 114 small cell lung
[12] = test system: UO-31 renal
[13] = test system: HOP-62 NSCLC
[14] = test system: DLD-1 colon
[15] = test system: RXF 393 renal
[16] = test system: A549 NSCLC
[17] = test system: OVCAR-3 ovarian
[18] = test system: KM12 colon
[19] = test system: EKVX NSCLC
[20] = test system: MALME-3M melanoma
[21] = test system: U251 CNS
[22] = test system: MOLT-4 leukemia
[23] = test system: SF-539 CNS
[24] = test system: KM20L2 colon
[25] = test system: SNB-75 CNS
[26] = test system: SK-OV-3 ovarian
[27] = test system: RPMI-8226 leukemia
[28] = test system: HCT-15 colon
[29] = test system: OVCAR-4 ovarian
[30] = test system: HL-60(TB) leukemia
[31] = test system: A498 renal
[32] = test system: OVCAR-5 ovarian
[33] = test system: NCI-H23 lung
[34] = test system: DMS 273 small cell lung
[35] = test system: SK-MEL-5 melanoma
[36] = test system: HOP-18 NSCLC
[37] = test system: K-562 leukemia
[38] = test system: HCC-2998 colon
[39] = test system: SK-MEL-2 melanoma
[40] = test system: OVCAR-8 ovarian
[41] = test system: CCRF-CEM leukemia
[42] = test system: ACHN renal
[43] = test system: NCI-H226 lung
[44] = test system: SNB-78 CNS
[45] = test system: SNB-19 CNS
[46] = test system: SN12C renal
[47] = test system: UACC-62 melanoma
[48] = test system: SK-MEL-28 melanoma
[49] = test system: LOX IMVI melanoma
[50] = test system: UACC-257 melanoma
[51] = test system: M14 melanoma
[52] = test system: HOP-92 NSCLC
[53] = test system: M19-MEL melanoma
[54] = test system: NCI-H522 lung
[55] = test system: HT29 colon
[56] = test system: SR leukemia
[57] = test system: HCT-116 colon
[58] = test system: NCI-H460 lung

O=C1OC(c2cccc(C(F)(F)F)c2)(c2cccc(C(F)(F)F)c2)c2ccc3ccccc3c21
TGI [1]: > 100 µM
GI50 [2]: 7.26 µM
TGI [2]: > 100 µM
TGI [3]: > 100 µM
GI50 [4]: > 100 µM
TGI [4]: > 100 µM
GI50 [5]: > 100 µM
TGI [5]: > 100 µM
GI50 [6]: > 100 µM
TGI [6]: > 100 µM
GI50 [7]: > 100 µM
TGI [7]: > 100 µM
TGI [8]: > 100 µM
GI50 [9]: > 100 µM
TGI [9]: > 100 µM
TGI [10]: > 100 µM
GI50 [11]: 4.44 µM
TGI [11]: > 100 µM
GI50 [12]: > 100 µM
TGI [12]: > 100 µM
GI50 [13]: > 100 µM
TGI [13]: > 100 µM
GI50 [14]: > 100 µM
TGI [14]: > 100 µM
TGI [15]: > 100 µM
GI50 [16]: > 100 µM
TGI [16]: > 100 µM
GI50 [17]: 22.4 µM
TGI [17]: > 100 µM
TGI [18]: > 100 µM
GI50 [19]: > 100 µM
TGI [19]: > 100 µM
GI50 [20]: > 100 µM
TGI [20]: > 100 µM
TGI [21]: > 100 µM
GI50 [22]: 7.21 µM
TGI [22]: > 100 µM
TGI [23]: > 100 µM
TGI [24]: > 100 µM
GI50 [25]: > 100 µM
TGI [25]: > 100 µM
GI50 [26]: > 100 µM
TGI [26]: > 100 µM
GI50 [27]: 7.56 µM
TGI [27]: > 100 µM
TGI [28]: > 100 µM
GI50 [29]: > 100 µM
TGI [29]: > 100 µM
TGI [30]: > 100 µM
GI50 [31]: > 100 µM
TGI [31]: > 100 µM
GI50 [32]: > 100 µM
TGI [32]: > 100 µM
GI50 [33]: 3.92 µM
TGI [33]: > 100 µM
GI50 [34]: > 100 µM
TGI [34]: > 100 µM
GI50 [35]: 5.26 µM
TGI [35]: > 100 µM
GI50 [36]: > 100 µM
TGI [36]: > 100 µM
GI50 [37]: 4.29 µM
TGI [37]: > 100 µM
GI50 [38]: > 100 µM
TGI [38]: > 100 µM
GI50 [39]: > 100 µM
TGI [39]: > 100 µM
GI50 [40]: > 100 µM
TGI [40]: > 100 µM
GI50 [41]: 9.13 µM
TGI [41]: > 100 µM
TGI [42]: > 100 µM
TGI [43]: > 100 µM
GI50 [44]: > 100 µM
TGI [44]: > 100 µM
TGI [45]: > 100 µM
GI50 [46]: > 100 µM
TGI [46]: > 100 µM
GI50 [47]: > 100 µM
TGI [47]: > 100 µM
GI50 [48]: > 100 µM
TGI [48]: > 100 µM
GI50 [49]: > 100 µM
TGI [49]: > 100 µM
TGI [50]: > 100 µM
GI50 [51]: > 100 µM
TGI [51]: > 100 µM
TGI [52]: > 100 µM

COc1ccc2c3ccc4c(c3n(C)c2c1)C(=O)C=CC4=O
TGI [1]: 52.5 µM
TGI [2]: 28.6 µM
TGI [3]: > 100 µM
TGI [4]: 32.9 µM
TGI [5]: > 100 µM
TGI [6]: 30.6 µM
TGI [53]: 46.2 µM
TGI [7]: > 100 µM
TGI [10]: > 100 µM
TGI [12]: 90.3 µM
TGI [13]: > 100 µM
TGI [14]: 30.2 µM
TGI [15]: 37.5 µM
TGI [16]: > 100 µM
TGI [19]: > 100 µM
TGI [20]: > 100 µM
TGI [21]: > 100 µM
TGI [22]: 13.6 µM
TGI [23]: 52.8 µM
TGI [24]: > 100 µM
TGI [25]: > 100 µM
TGI [26]: > 100 µM
TGI [27]: 48.4 µM
TGI [28]: > 100 µM
TGI [29]: 92.5 µM
TGI [30]: 19.8 µM
TGI [31]: > 100 µM
TGI [33]: > 100 µM
TGI [34]: > 100 µM
TGI [35]: > 100 µM
TGI [54]: 22.4 µM
TGI [36]: > 100 µM
TGI [37]: 26.6 µM
TGI [38]: > 100 µM
TGI [55]: > 100 µM
TGI [40]: 33.2 µM
TGI [41]: 49.9 µM
TGI [42]: 59.6 µM
TGI [43]: > 100 µM
TGI [44]: > 100 µM
TGI [45]: > 100 µM
TGI [56]: 22.2 µM
TGI [46]: > 100 µM
TGI [47]: > 100 µM
TGI [48]: > 100 µM
TGI [50]: > 100 µM
TGI [51]: > 100 µM
TGI [57]: 48.4 µM
TGI [52]: 32.3 µM

CCCCCC(=O)OCCOCCOCCOCCOCCOCc1ccccc1
TGI [1]: > 100 µM
TGI [3]: > 100 µM
TGI [4]: > 100 µM
TGI [5]: > 100 µM
TGI [6]: > 100 µM
TGI [7]: > 100 µM
TGI [8]: > 100 µM
TGI [9]: > 100 µM
TGI [10]: > 100 µM
TGI [11]: > 100 µM
TGI [13]: > 100 µM
TGI [14]: > 100 µM
TGI [15]: > 100 µM
TGI [16]: > 100 µM
TGI [17]: > 100 µM
TGI [18]: > 100 µM
TGI [19]: > 100 µM
TGI [20]: > 100 µM
TGI [21]: > 100 µM
TGI [23]: > 100 µM
TGI [24]: > 100 µM
TGI [28]: > 100 µM
TGI [29]: > 100 µM
TGI [31]: > 100 µM
TGI [32]: > 100 µM
TGI [33]: > 100 µM
TGI [34]: > 100 µM
TGI [35]: > 100 µM
TGI [58]: > 100 µM
TGI [36]: > 100 µM
TGI [39]: > 100 µM
TGI [40]: > 100 µM
TGI [42]: > 100 µM
TGI [43]: > 100 µM
TGI [44]: > 100 µM
TGI [45]: > 100 µM
TGI [46]: > 100 µM
TGI [47]: > 100 µM
TGI [48]: > 100 µM
TGI [49]: > 100 µM
TGI [50]: > 100 µM
TGI [57]: > 100 µM
TGI [52]: > 100 µM
